Measured values from patent US11660345B2, “Method and composition for enhancing the delivery of anti-platelet drugs for the treatment of acute stroke” (Realinn Life Science Limited, priority 2013, dated 2023).

Experiments:
mouse stroke model = conditions: intravenous injection of 100 mg/kg; cited from earlier work
[1] = system: middle cerebral artery occlusion (MCAO) model in mice; assay: Neurobehavioral test (motor neurobehavior evaluation score 0-4) in mice of the middle cerebral artery occlusion model; assay type: in vivo; conditions: 10 mg/kg (2 mg/mL) tail vein injection 5 hours after stroke, higher score = higher motor dysfunction (vehicle control 3)
Description: (§1) In order to simulate human brain stroke, an intravascular suture-occluded method was employed to establish a middle cerebral artery occlusion (MCAO) model in mice. Prior to experimentation, the body weights of the mice were measured and rectum temperatures were recorded. The mice were anesthetized with 4% halothane in 100% O2 followed by 0.5-1% halothane in 70% N2O and 30% O2 to maintain the anesthetized status. The mouse cerebral artery occlusion model is established according to the Tamura method (Focal cerebral ischemia in the rat: 1. Description of technique and early neuropathological consequences following middle cerebral artery occlusion. J Cereb Blood Flow Metab. 1981; 1(1):53-60. Tamura A, Graham D I, McCulloch J, Teasdale G M). […]
The body weights of the mice in the three test groups in Example 4 were measured and neurological examination was conducted concurrently. […] Since 15 days after stroke is no longer the acute stroke phase, the invention evaluated the status of the motor system of mice treated within the acute stroke phase and those treated after the acute stroke phase. The motor responses to be assessed are listed in Table 1 (Middle cerebral artery occlusion in the rat by intraluminal suture. Neurological and pathological evaluation of an improved model. Belayev L, Alonso O F, Busto R, Zhao W, Ginsberg M D. Stroke. 1996 September; 27(9):1616-22; discussion 1623). […]

[2] = system: middle cerebral artery occlusion (MCAO) model in mice; assay: Brain infarct volume, atrophy and edema by Nissl staining in mice of the middle cerebral artery occlusion model; assay type: in vivo; conditions: 10 mg/kg (2 mg/mL)
Description: as §1, with “M). The mouse was secured in prone position and an incision was introduced to the lateral of the head and neck portion by a scalpel to expose the right common carotid artery. The middle cerebral artery (MCA) was cauterized to simulate ischemia.” for “M).”
The mice of the middle cerebral artery occlusion model were sacrificed 15 days after the treatment with the three groups of drugs. Brain samples of the mice were collected and local ischemic injuries on the neuron gray matter of the mice brains were evaluated with Nissl staining using cresyl violet. […]

Compound	hypotension / mortality (in words) (mouse stroke model)	infarct volume (in words) (mouse stroke model)	score of the motor neurobehavior evaluation ([1]; after 7 days of treatment)	score of the motor neurobehavior evaluation ([1]; after 15 days of treatment)	brain infarct volume ([2]; 5 hours after stroke, 15 days after treatment (vehicle control about 14%))	brain atrophy (Nissl staining / infarct volume calculation) ([2]; 15 days after treatment)
OCCN(CCO)c1nc(N2CCCCC2)c2nc(N(CCO)CCO)nc(N3CCCCC3)c2n1 [Dipyridamole]	causes hypotension and increases the mortality rate	can efficiently reduce the infarct volume				
recombinant-type plasminogen activator: recombinant-type plasminogen activator (rt-PA), thrombolytic agent			2.3	2.6	about 18%	atrophied after 15 days
